Patent US8710080B2, “Prodrugs of [4 [4-(5-Aminomethyl-2-fluoro-phenyl)-piperidin-1-yl]-(1H-pyrrolo-pyridin-yl)-methanones and synthesis thereof” (Sanofi, priority 2009, dated 2014)
Where a name gives a salt, the structure may show the parent alone.

Legend:
[1] = Rat plasma stability (incubation in rat plasma, LC-MS/MS); type: in vitro ADME; conditions: 100 ng/mL, 37° C.
Procedure: The rat plasma stability of Example 1 was tested by incubation of the compound in rat plasma at 100 ng/mL followed by LC-MS/MS bioanalysis to measure remaining parent compound relative to the time zero condition (no incubation). Concentrations of 1 remaining at 1 and 4 hr after incubation at 37° C. were 19% and 0%, indicating 1 was very unstable under these conditions. Since 1 was designed as a prodrug, plasma instability is a desirable attribute.

[2] = biological target: T1, beta-Tryptase (Homo sapiens, UniProt Q15661); test: beta-Tryptase inhibition, chromogenic enzyme assay (S2366 substrate); type: biochemical; conditions: activity of parent drug against beta-Tryptase; Ki calculated from IC50
T1 construct: host or cells: yeast cells
T1 sequence (Q15661 31-275): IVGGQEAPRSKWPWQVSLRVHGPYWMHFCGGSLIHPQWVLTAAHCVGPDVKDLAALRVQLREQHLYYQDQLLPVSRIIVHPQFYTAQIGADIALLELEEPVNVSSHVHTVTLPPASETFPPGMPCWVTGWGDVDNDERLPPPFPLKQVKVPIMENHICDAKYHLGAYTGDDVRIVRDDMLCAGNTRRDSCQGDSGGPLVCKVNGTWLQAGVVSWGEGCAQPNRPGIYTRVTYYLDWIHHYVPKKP
Description: Inhibition of this catalytic activity may be measured by the in vitro enzyme assay and the cellular assay.
Tryptase inhibition activity is confirmed using either isolated human lung tryptase or recombinant human beta tryptase expressed in yeast cells. Essentially equivalent results are obtained using isolated native enzyme or the expressed enzyme. The assay procedure employs a 96 well microplate (Costar 3590) using L-pyroglutamyl-L-prolyl-L-arginine-para-nitroanilide (S2366: Quadratech) as substrate (essentially as described by McEuen et. al. Biochem Pharm, 1996, 52, pages 331-340). Assays are performed at room temperature using 0.5 mM substrate (2×Km) and the microplate is read on a microplate reader (Beckman Biomek Plate reader) at 405 nm wavelength.
Materials and Methods for Tryptase Primary Screen (Chromogenic Assay)
S2366 (Stock solutions of 2.5 mM).
Purified recombinant beta Tryptase Stocks of 310 μg/mL. […]
The protocol is essentially the same as above except that the compound is added in duplicates at the following final concentrations: 0.01, 0.03, 0.1, 0.3, 1, 3, 10 μM (All dilutions carried out manually). […] From the IC50 value, the Ki can be calculated using the following formula: Ki=IC50/(1+[Substrate]/Km).

COCCn1cc(C(=O)N2CCC(c3cc(CNC(=O)CNC(=O)[C@@H](N)C(C)C)ccc3F)CC2)c2c(C(=O)N3CCOCC3)cccc21.Cl [Example 1, (S)-2-Amino-N-[(4-fluoro-3-{1-[1-(2-methoxy-ethyl)-4-(morpholine-4-carbonyl)-1H-indole-3-carbonyl]-piperidin-4-yl}-benzylcarbamoyl)-methyl]-3-methyl-butyramide hydrochloride]
Rat plasma stability (in words) [1]: very unstable
Concentration remaining relative to time zero ([1]; 1 hr incubation): 19%
Concentration remaining relative to time zero ([1]; 4 hr incubation): 0%

COCCn1cc(C(=O)N2CCC(c3cc(CN)ccc3F)CC2)c2c(C(=O)N3CCOCC3)cccc21 [Parent of 1, [4-(5-Aminomethyl-2-fluoro-phenyl)-piperidin-1-yl]-[1-(2-methoxy-ethyl)-4-(morpholine-4-carbonyl)-1H-indol-3-yl]-methanone hydrochloride]
Ki [2]: 29 nM

COCCn1cc(C(=O)N2CCC(c3cc(CN)ccc3F)CC2)c2c(OC(F)(F)F)ccc(F)c21 [Parent of 4, [4-(5-aminomethyl-2-fluoro-phenyl)-piperidin-1-yl]-[7-fluoro-1-(2-methoxy-ethyl)-4-trifluoromethoxy-1H-indol-3-yl]-methanone hydrochloride]
Ki [2]: 38 nM
